For the assay, the target named is USP30 (Homo sapiens (Human), UniProt Q70CQ3). Put plainly: USP30 Biochemical IC50 Assay. The settings on record: fluorescence polarisation, TAMRA labelled peptide linked to ubiquitin; 30 min pre-incubation, read after 2 h; read-out: IC50 range. The protocol: Reactions were performed in duplicate in black 384 well plates (small volume, Greiner 784076) in a final reaction volume of 21 μl. Either 1 μl of 50% DMSO or diluted compound was added to the plate. […] Enzyme and compound were incubated for 30 min at room temp. Reactions were initiated by the addition of 50 nM of TAMRA labelled peptide linked to ubiquitin via an iso-peptide bond as fluorescence polarisation substrate. Reactions were read immediately after addition of substrate and following a 2 h incubation at room temperature. Readings were performed on a Pherastar Plus (BMG Labtech). λ Excitation 540 nm; λ Emission 590 nm.
Chain of USP30 (Q70CQ3 57-517): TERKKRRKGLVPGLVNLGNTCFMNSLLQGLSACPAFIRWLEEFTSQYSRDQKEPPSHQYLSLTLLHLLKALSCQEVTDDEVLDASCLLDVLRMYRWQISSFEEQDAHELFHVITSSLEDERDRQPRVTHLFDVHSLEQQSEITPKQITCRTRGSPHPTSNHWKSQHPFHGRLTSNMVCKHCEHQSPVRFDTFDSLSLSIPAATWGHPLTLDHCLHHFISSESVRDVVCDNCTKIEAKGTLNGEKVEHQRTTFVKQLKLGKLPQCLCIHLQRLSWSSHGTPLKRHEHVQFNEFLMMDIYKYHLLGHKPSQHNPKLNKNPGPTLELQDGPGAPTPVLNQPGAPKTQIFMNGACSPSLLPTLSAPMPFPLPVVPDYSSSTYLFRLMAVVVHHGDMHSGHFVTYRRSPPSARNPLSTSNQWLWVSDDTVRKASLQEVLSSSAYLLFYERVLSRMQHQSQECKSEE
(In general: In fluorescence polarisation assays a small probe gives low polarisation when free and higher when bound to something large.)
In the case of `C[C@@H]1CN(C#N)C[C@H]1c1cc(-c2cccc(-c3ccccc3)c2)n[nH]1` (relative stereo) [Example 19, Trans-3-(3-([1,1′-biphenyl]-3-yl)-1H-pyrazol-5-yl)-4-methylpyrrolidine-1-carbonitrile], the IC50 lay within 100 to 1000 nM. In the case of `CC[C@@H]1CN(C#N)C[C@H]1c1cc(-c2cccc(-c3ccccc3)c2)n[nH]1` (relative stereo) [Example 43, trans-3-(3-([1,1′-biphenyl]-3-yl)-1H-pyrazol-5-yl)-4-ethylpyrrolidine-1-carbonitrile] it was 100 to 1000 nM; in that of `N#CN1C[C@@H](c2cc(-c3cccc(-c4ccccc4)c3)n[nH]2)[C@H](C2CC2)C1` (relative stereo) [Example 46, Trans-3-(3-([1,1′-biphenyl]-3-yl)-1H-pyrazol-5-yl)-4-cyclopropylpyrrolidine-1-carbonitrile], 100 to 1000 nM. In the case of `C[C@@H]1CN(C#N)C[C@H]1c1cc(-c2ccncc2)n[nH]1` (relative stereo) [Example 48, Trans-3-methyl-4-(3-(pyridin-4-yl)-1H-pyrazol-5-yl)pyrrolidine-1-carbonitrile] it was 1000 to 10000 nM; in that of `C[C@@H]1CN(C#N)C[C@H]1c1cc(-c2ccccc2)n[nH]1` (relative stereo) [Example 49, Trans-3-methyl-4-(3-phenyl-1H-pyrazol-5-yl)pyrrolidine-1-carbonitrile], 1000 to 10000 nM; in that of `C[C@@H]1CN(C#N)C[C@H]1c1nc(-c2ccccc2)n[nH]1` (relative stereo) [Example 113, Trans 3-methyl-4-(3-phenyl-1H-1,2,4-triazol-5-yl)pyrrolidine-1-carbonitrile], 1000 to 10000 nM. In the case of `C[C@@H]1CN(C#N)C[C@H]1c1n[nH]c(-c2cccc(-c3ccccc3)c2)n1` (relative stereo) [Example 114, Trans-3-(3-([1,1′-biphenyl]-3-yl)-1H-1,2,4-triazol-5-yl)-4-methylpyrrolidine-1-carbonitrile] it was less than 100 nM.

For `N#CN1CCC(c2[nH]nc(-c3cccc(-c4ccccc4)c3)c2F)C1` (single isomer, unassigned) [Example 16, 3-(3-([1,1′-Biphenyl]-3-yl)-4-fluoro-1H-pyrazol-5-yl)pyrrolidine-1-carbonitrile], the IC50 was 100 to 1000 nM.

Consider `N#CN1CCC(c2[nH]nc(-c3cccc(-c4ccccc4)c3)c2F)C1` (single isomer, unassigned) [Example 17, 3-(3-([1,1′-Biphenyl]-3-yl)-4-fluoro-1H-pyrazol-5-yl)pyrrolidine-1-carbonitrile], for which the IC50 is less than 100 nM. With `N#CN1CCC(c2cc(-c3cccc(-c4ccccc4)n3)[nH]n2)C1` (single isomer, unassigned) [Example 41, 3-(5-(6-Phenylpyridin-2-yl)-1H-pyrazol-3-yl)pyrrolidine-1-carbonitrile], the IC50 was in the range of 100 to 1000 nM. In the case of `N#CN1CCC(c2cc(-c3cccc(-c4ccccc4)n3)[nH]n2)C1` (single isomer, unassigned) [Example 42, 3-(5-(6-Phenylpyridin-2-yl)-1H-pyrazol-3-yl)pyrrolidine-1-carbonitrile] it was 100 to 1000 nM; in that of `CC[C@@H]1CN(C#N)C[C@H]1c1cc(-c2cccc(-c3ccccc3)c2)n[nH]1` (single isomer, unassigned) [Example 44, Trans-3-(3-([1,1′-biphenyl]-3-yl)-1H-pyrazol-5-yl)-4-ethylpyrrolidine-1-carbonitrile], 1000 to 10000 nM; in that of `CC[C@@H]1CN(C#N)C[C@H]1c1cc(-c2cccc(-c3ccccc3)c2)n[nH]1` (single isomer, unassigned) [Example 45, Trans-3-(3-([1,1′-biphenyl]-3-yl)-1H-pyrazol-5-yl)-4-ethylpyrrolidine-1-carbonitrile], 100 to 1000 nM.

Turning to `N#CN1CCC(c2nc3cc(-c4ccncc4)cnc3[nH]2)C1` (single isomer, unassigned) [Example 81, 3-(6-(Pyridin-4-yl)-3H-imidazo[4,5-b]pyridin-2-yl)pyrrolidine-1-carbonitrile], the IC50 was 100 to 1000 nM.

In the case of `N#CN1CCC(c2nc3cc(-c4ccncc4)cnc3[nH]2)C1` (single isomer, unassigned) [Example 82, 3-(6-(Pyridin-4-yl)-3H-imidazo[4,5-b]pyridin-2-yl)pyrrolidine-1-carbonitrile], the IC50 was 1000 to 10000 nM. In the case of `N#Cc1ccc(-c2cnc3[nH]c(C4CCN(C#N)C4)nc3c2)cc1` (single isomer, unassigned) [Example 90, 3-(6-(4-Cyanophenyl)-3H-imidazo[4,5-b]pyridin-2-yl)pyrrolidine-1-carbonitrile] it was 100 to 1000 nM; in that of `N#Cc1ccc(-c2cnc3[nH]c(C4CCN(C#N)C4)nc3c2)cc1` (single isomer, unassigned) [Example 91, 3-(6-(4-Cyanophenyl)-3H-imidazo[4,5-b]pyridin-2-yl)pyrrolidine-1-carbonitrile], 100 to 1000 nM. For `CNC(=O)c1cccc(-c2cnc3[nH]c(C4CCN(C#N)C4)nc3c2)c1` (single isomer, unassigned) [Example 92, 3-(2-(1-Cyanopyrrolidin-3-yl)-3H-imidazo[4,5-b]pyridin-6-yl)-N-methylbenzamide], the half-maximal inhibitory concentration (IC50) is 1000 to 10000 nM. For the compound `CNC(=O)c1cccc(-c2cnc3[nH]c(C4CCN(C#N)C4)nc3c2)c1` (single isomer, unassigned) [Example 93, 3-(2-(1-Cyanopyrrolidin-3-yl)-3H-imidazo[4,5-b]pyridin-6-yl)-N-methylbenzamide], the IC50 fell in the range of 100 to 1000 nM.

Consider `C[C@H]1CN(C#N)C[C@@H]1c1nc2cc(-c3ccccc3)cnc2[nH]1` (single isomer, unassigned) [Example 102, Trans-3-methyl-4-(6-phenyl-3H-imidazo[4,5-b]pyridin-2-yl)pyrrolidine-1-carbonitrile], for which the IC50 was 100 to 1000 nM. For `C[C@H]1CN(C#N)C[C@@H]1c1nc2cc(-c3ccccc3)cnc2[nH]1` (single isomer, unassigned) [Example 103, Trans-3-methyl-4-(6-phenyl-3H-imidazo[4,5-b]pyridin-2-yl)pyrrolidine-1-carbonitrile] the value was 100 to 1000 nM.

As to `C[C@H]1CN(C#N)C[C@@H]1c1nc2cc(-c3ccccc3)ccc2[nH]1` (single isomer, unassigned) [Example 104, Trans-3-methyl-4-(5-phenyl-1H-benzo[d]imidazol-2-yl)pyrrolidine-1-carbonitrile], the IC50 lay in the range of 100 to 1000 nM.

Regarding `C[C@@H]1CN(C#N)C[C@H]1c1n[nH]c(-c2cccc(-c3ccccc3)c2)n1` (single isomer, unassigned) [Example 116, Trans-3-(3-([1,1′-biphenyl]-3-yl)-1H-1,2,4-triazol-5-yl)-4-methylpyrrolidine-1-carbonitrile], the IC50 lay within 100 to 1000 nM. On to `N#CN1CCC(c2cc(-c3cccc(-c4ccccc4)c3)no2)C1` (single isomer, unassigned) [Example 118, 3-(3-([1,1′-Biphenyl]-3-yl)isoxazol-5-yl)pyrrolidine-1-carbonitrile], for which the IC50 is less than 100 nM. For `N#CN1CCC(c2cc(-c3cccc(-c4ccccc4)c3)no2)C1` (single isomer, unassigned) [Example 119, 3-(3-([1,1′-Biphenyl]-3-yl)isoxazol-5-yl)pyrrolidine-1-carbonitrile] the value was less than 100 nM.

Broadly, the IC50 is the midpoint of a concentration-inhibition curve.

The record behind these values is patent US11352339B2 (MISSION THERAPEUTICS LIMITED, priority 2016, dated 2022).
